Reference: patent US20220402901A1 (Bial - R&D Investments, S.A., priority 2019, published 2022)
In brackets after ≈: the same amount, converted by molar mass.

Experiments:
[1] = Compound solubility in water; assay type: physicochemical; conditions: read-out: Solubility in H2O
[2] = target: T1, Human acid ceramidase (hACR) (Homo sapiens, UniProt Q13510); assay: Acid ceramidase biochemical fluorescent assay (cell lysates overexpressing acid ceramidase, substrate Rbm14-12); conditions: 10 μg lysate protein, 1 hr preincubation at RT, pH 4.5, Rbm14-12 6.3 μM
T1 construct: expressed in transfected cells; lysates of cells overexpressing acid ceramidase
T1 sequence (Q13510 22-395): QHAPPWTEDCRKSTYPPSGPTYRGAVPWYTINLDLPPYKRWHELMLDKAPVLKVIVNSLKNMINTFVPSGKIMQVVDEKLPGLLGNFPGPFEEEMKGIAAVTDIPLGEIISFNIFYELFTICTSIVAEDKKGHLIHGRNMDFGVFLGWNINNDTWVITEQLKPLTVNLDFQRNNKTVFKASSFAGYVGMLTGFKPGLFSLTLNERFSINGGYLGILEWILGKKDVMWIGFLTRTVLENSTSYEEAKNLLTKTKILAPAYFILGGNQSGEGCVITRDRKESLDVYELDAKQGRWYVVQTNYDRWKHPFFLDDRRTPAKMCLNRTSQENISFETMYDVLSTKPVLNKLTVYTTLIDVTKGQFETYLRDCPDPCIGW
Protocol: The ability of exemplary compounds to inhibit acid ceramidase was measured.
Cell lysates overexpressing acid ceramidase were used as the enzyme source for compound potency determination in a biochemical fluorescent assay. Briefly, compounds were preincubated with 10 μg protein of cell lysates in a dose-response manner for 1 hr at RT in the assay buffer containing 25 mM NaAC and 100 mM NaCl, pH 4.5. The reaction was initiated by the addition of substrate Rbm14-12 at a final concentration of 6.3 μM. The reaction was run at RT for 1 hr before it was stopped by the addition of the stopping buffer containing 20% methanol (v/v), 1 mg/ml NaIO4, 0.1 M glycine, pH 10.6. The samples were incubated with the stopping buffer at RT for 1 hr to allow the fluorescent product to be formed. Finally the plate was read with SpectraMax i3 plate reader (Molecular Devices) at ex360 nm and em446 nm. Data were collected and used to determine the IC50 values of compounds by curve fitting to the four-parameter inhibition equation.
The symbol “A” indicates inhibition of less than 0.2 μM; the symbol “B” indicates inhibition in the range of 0.2 μM up to 1 μM; and the symbol “C” indicates inhibition of greater than 1 μM.

solubility [1]	IC50 [2]	SMILES
5.8 µM (≈ 2.44 µg/mL)	< 200 nM	Cn1c(=O)oc2cc(C3CCN(C(=O)NCCCc4ccccc4)C(C)(C)C3)ccc21 (centres unmarked) [Example 26, 2,2-Dimethyl-4-(3-methyl-2-oxo-1,3-benzoxazol-6-yl)-N-(3-phenylpropyl)piperidine-1-carboxamide]
9.4 µM (≈ 4.11 µg/mL)	< 200 nM	Cn1c(=O)oc2cc(C3CCN(C(=O)NCCOCc4ccccc4)C(C)(C)C3)ccc21 (centres unmarked) [Example 27, N-(2-Benzyloxyethyl)-2,2-dimethyl-4-(3-methyl-2-oxo-1,3-benzoxazol-6-yl)piperidine-1-carboxamide]
1.7 µM (≈ 0.635 µg/mL)	< 200 nM	CCCCCNC(=O)N1CCC(c2ccc3c(c2)oc(=O)n3C)CC1(C)C (centres unmarked) [Example 28, 2,2-Dimethyl-4-(3-methyl-2-oxo-1,3-benzoxazol-6-yl)-N-pentylpiperidine-1-carboxamide]
250 µM (≈ 92.9 µg/mL)	200 to 1000 nM	Cn1c(=O)oc2cc(C3CCN(C(=O)NCCC4CC4)C(C)(C)C3)ccc21 (centres unmarked) [Example 29, N-(2-Cyclopropylethyl)-2,2-dimethyl-4-(3-methyl-2-oxo-1,3-benzoxazol-6-yl)piperidine-1-carboxamide]
0.3 µM (≈ 0.12 µg/mL)	< 200 nM	Cn1c(=O)oc2cc(C3CCN(C(=O)NCCCCC4CC4)C(C)(C)C3)ccc21 (centres unmarked) [Example 31, N-(4-Cyclopropylbutyl)-2,2-dimethyl-4-(3-methyl-2-oxo-1,3-benzoxazol-6-yl)piperidine-1-carboxamide]
< 1 µM	> 1000 nM	Cn1c(=O)oc2cc(C3CCN(C(=O)NCCCCc4ccccc4)C(=O)C3)ccc21 (centres unmarked) [Example 35, 4-(3-Methyl-2-oxo-1,3-benzoxazol-6-yl)-2-oxo-N-(4-phenylbutyl)piperidine-1-carboxamide]
30 µM (≈ 12.2 µg/mL)	> 1000 nM	Cn1c(=O)oc2cc(C3CCCCN3C(=O)NCCCCc3ccccc3)ccc21 (centres unmarked) [Example 37, 2-(3-Methyl-2-oxo-1,3-benzoxazol-6-yl)-N-(4-phenylbutyl)piperidine-1-carboxamide]
241 µM (≈ 98.4 µg/mL)	> 1000 nM	Cn1c(=O)oc2cc(C3CNCCN3C(=O)NCCCCc3ccccc3)ccc21 (centres unmarked) [Example 39, 2-(3-Methyl-2-oxo-1,3-benzoxazol-6-yl)-N-(4-phenylbutyl)piperazine-1-carboxamide]
224 µM (≈ 94.6 µg/mL)	> 1000 nM	CN1CCN(C(=O)NCCCCc2ccccc2)C(c2ccc3c(c2)oc(=O)n3C)C1 (centres unmarked) [Example 40, 4-Methyl-2-(3-methyl-2-oxo-1,3-benzoxazol-6-yl)-N-(4-phenylbutyl)piperazine-1-carboxamide]
135 µM (≈ 57 µg/mL)	> 1000 nM	CN1CCN(C(=O)NCCCCc2ccccc2)CC1c1ccc2c(c1)oc(=O)n2C (centres unmarked) [Example 41, 4-Methyl-3-(3-methyl-2-oxo-1,3-benzoxazol-6-yl)-N-(4-phenylbutyl)piperazine-1-carboxamide]
14.8 µM (≈ 6.48 µg/mL)	< 200 nM	Cn1c(=O)oc2cc(C3COCC(C)(C)N3C(=O)NCCCCc3ccccc3)ccc21 (centres unmarked) [Example 42, 3,3-Dimethyl-5-(3-methyl-2-oxo-1,3-benzoxazol-6-yl)-N-(4-phenylbutyl) morpholine-4-carboxamide]
69.1 µM (≈ 25.9 µg/mL)	< 200 nM	CCCCCNC(=O)N1C(c2ccc3c(c2)oc(=O)n3C)COCC1(C)C (centres unmarked) [Example 43]
6 µM (≈ 2.45 µg/mL)	200 to 1000 nM	Cn1c(=O)oc2cc(N3CCN(C(=O)NCCCCc4ccccc4)CC3)ccc21 [Example 46, 4-(3-Methyl-2-oxo-1,3-benzoxazol-6-yl)-N-(4-phenylbutyl)piperazine-1-carboxamide]
250 µM (≈ 116 µg/mL)	> 1000 nM	CN(C)CCn1c(=O)oc2cc(N3CCN(C(=O)NCCCCc4ccccc4)CC3)ccc21 [Example 47, 4-[3-[2-(Dimethylamino)ethyl]-2-oxo-1,3-benzoxazol-6-yl]-N-(4-phenylbutyl)piperazine-1-carboxamide]
4.3 µM (≈ 1.82 µg/mL)	200 to 1000 nM	C[C@@H]1CN(c2ccc3c(c2)oc(=O)n3C)CCN1C(=O)NCCCCc1ccccc1 [Example 48, (2R)-2-Methyl-4-(3-methyl-2-oxo-1,3-benzoxazol-6-yl)-N-(4-phenylbutyl)piperazine-1-carboxamide]
0.3 µM (≈ 0.131 µg/mL)	< 200 nM	Cn1c(=O)oc2cc(N3CCN(C(=O)NCCCCc4ccccc4)C(C)(C)C3)ccc21 [Example 50, 2,2-Dimethyl-4-(3-methyl-2-oxo-1,3-benzoxazol-6-yl)-N-(4-phenylbutyl)piperazine-1-carboxamide]
0.9 µM (≈ 0.368 µg/mL)	200 to 1000 nM	Cn1c(=O)oc2cc(N3CCN(C(=O)NCCc4ccccc4)C(C)(C)C3)ccc21 [Example 51, 2,2-Dimethyl-4-(3-Methyl-2-oxo-1,3-benzoxazol-6-yl)-N-(2-phenylethyl)piperazine-1-carboxamide]
0.9 µM (≈ 0.36 µg/mL)	< 200 nM	Cn1c(=O)oc2cc(N3CCN(C(=O)NCCCCC4CC4)C(C)(C)C3)ccc21 [Example 52, N-(4-Cyclopropylbutyl)-2,2-dimethyl-4-(3-methyl-2-oxo-1,3-benzoxazol-6-yl)piperazine-1-carboxamide]

The next lines start with the molecule.

SMILES	solubility [1]	IC50 [2]
O=C(NCCCCc1ccccc1)N1CCC(c2ccc3[nH]c(=O)oc3c2)CC1 [Example 1, 4-(2-Oxo-3H-1,3-benzoxazol-6-yl)-N-(4-phenylbutyl)piperidine-1-carboxamide]	2.4 µM (≈ 0.944 µg/mL)	200 to 1000 nM
CC(C)CNC(=O)N1CCC(c2ccc3c(c2)oc(=O)n3C)CC1 [Example 3, N-iso-Butyl 4-(3-methyl-2-oxo-1,3-benzoxazol-6-yl)piperidine-1-carboxamide]	126 µM (≈ 41.8 µg/mL)	> 1000 nM
CN1CCC(n2c(=O)oc3cc(C4CCN(C(=O)NCCCCc5ccccc5)CC4)ccc32)CC1 [Example 6, 4-[3-(1-Methyl-4-piperidyl)-2-oxo-1,3-benzoxazol-6-yl]-N-(4-phenylbutyl)piperidine-1-carboxamide]	10 µM (≈ 4.91 µg/mL)	> 1000 nM
Cn1c(=O)oc2c(C3CCN(C(=O)NCCCCc4ccccc4)CC3)cccc21 [Example 7, 4-(3-Methyl-2-oxo-1,3-benzoxazol-7-yl)-N-(4-phenylbutyl)piperidine-1-carboxamide]	13 µM (≈ 5.3 µg/mL)	> 1000 nM
CC(C)CNC(=O)N1CCC(c2cccc3c2oc(=O)n3C)CC1 [Example 8, N-iso-Butyl-4-(3-methyl-2-oxo-1,3-benzoxazol-7-yl)piperidine-1-carboxamide]	143 µM (≈ 47.4 µg/mL)	> 1000 nM
Cn1c(=O)oc2ccc(C3CCN(C(=O)NCCCCc4ccccc4)CC3)cc21 [Example 9, 4-(3-Methyl-2-oxo-1,3-benzoxazol-5-yl)-N-(4-phenylbutyl)piperidine-1-carboxamide]	15 µM (≈ 6.11 µg/mL)	> 1000 nM
Cn1c(=O)oc2cccc(C3CCN(C(=O)NCCCCc4ccccc4)CC3)c21 [Example 10, 4-(3-Methyl-2-oxo-1,3-benzoxazol-4-yl)-N-(4-phenylbutyl)piperidine-1-carboxamide]	9 µM (≈ 3.67 µg/mL)	> 1000 nM
Cn1c(=O)oc2cc(C3CCCN(C(=O)NCCCCc4ccccc4)C3)ccc21 (centres unmarked) [Example 12, 3-(3-Methyl-2-oxo-1,3-benzoxazol-6-yl)-N-(4-phenylbutyl)piperidine-1-carboxamide]	8 µM (≈ 3.26 µg/mL)	> 1000 nM
C[C@H]1CC(c2ccc3c(c2)oc(=O)n3C)CCN1C(=O)NCCc1ccccc1 (stereo partly drawn) [Example 21, (2S)-Methyl-4-(3-methyl-2-oxo-1,3-benzoxazol-6-yl)-N-(2-phenylethyl)piperidine-carboxamide]	56 µM (≈ 22 µg/mL)	200 to 1000 nM
CC(C)CNC(=O)N1CCC(c2ccc3c(c2)oc(=O)n3C)C[C@@H]1C (stereo partly drawn) [Example 22, N-iso-Butyl (2S)-methyl-4-(3-methyl-2-oxo-1,3-benzoxazol-6-yl)piperidine-1-carboxamide]	235 µM (≈ 81.2 µg/mL)	200 to 1000 nM
Cn1c(=O)oc2cc(C3CCN(C(=O)NCCCCc4ccccc4)C(C)(C)C3)ccc21 (centres unmarked) [Example 24, 2,2-Dimethyl-4-(3-methyl-2-oxo-1,3-benzoxazol-6-yl)-N-(4-phenylbutyl)piperidine-1-carboxamide]	1.3 µM (≈ 0.566 µg/mL)	< 200 nM
Cn1c(=O)oc2cc(C3CCN(C(=O)NCCc4ccccc4)C(C)(C)C3)ccc21 (centres unmarked) [Example 25, 2,2-Dimethyl-4-(3-methyl-2-oxo-1,3-benzoxazol-6-yl)-N-(2-phenylethyl)piperidine-1-carboxamide]	26 µM (≈ 10.6 µg/mL)	< 200 nM
Cn1c(=O)oc2cc(C3CC4CCC(C3)N4C(=O)NCCCCc3ccccc3)ccc21 (centres unmarked) [Example 33, 3-(3-Methyl-2-oxo-1,3-benzoxazol-6-yl)-N-(4-phenylbutyl)-8-azabicyclo[3.2.1]octane-8-carboxamide]	3.2 µM (≈ 1.39 µg/mL)	< 200 nM
